Test results reported in US20260125346A1, “Isoquinolinone Derivatives and 4H-Quinolizinone Derivatives and Pharmaceutical Compositions Thereof for the Treatment of Disease” (BeOne Medicines I GmbH, priority 2023, published 2026).

Legend:
[1] = tested on: PI3Kα H1047R mutated cell line T-47D cells; experiment: Cell Proliferation Assay (CellTiter-Glo), T-47D; assay type: cell-based; details: for IC50: Homo sapiens, T47D, 72 h, T-47D, 3 days treatment; for Selectivity: SK-BR-3/T-47D (cell proliferation): cell proliferation IC50 ratio
Experimental: Cell Culture Maintenance. The T-47D (ATCC, HTB-133) cell line was obtained from the American Type Culture Collection. Cells were maintained in RPMI1640 medium (Gibco, REF #22400105) supplemented with 10% Fetal Bovine Serum (Gibco, REF #10091148). Cultures were maintained in a humidified incubator at 37° C. under 5% CO2/95% air.
Cell Proliferation Assay. PI3Kα H1047R mutated cell line T-47D cells and WT cell line SK-BR-3 were seeded at a density of 3×10^3 cells per well in 96 well plate (Xinyou Biotechnology, 062096) in 95 μL of culture medium, overnight. Compounds dissolved in 10 mM stock solutions in DMSO were serially diluted 1:3 in DMSO to generate a 9-point dilution series and plated using an INTEGRA ASSIST Plus pipetting robot. A 20× intermediate compound dilution plate in RPMI1640 medium (200 M starting compound concentration in 2% DMSO) was then prepared. Five μL of intermediate serially diluted compounds were added to the cell plate to final concentrations ranging from […] to 1 nM in 0.1% DMSO. 0.1% DMSO alone was used to establish the maximum signal and medium without cells was for minimum signal. After 3 days treatment, equilibrated the plate and its contents at room temperature for approximately 30 minutes. Added 30 μL CellTiter-Glo® Reagent (Promega, REF #G7571) to each well. Then mixed contents for 5 min on plate shaker to induce cell lysis. Incubated at room temperature for 10 minutes to stabilize luminescent signal. The plates were read on PHERAstar FSX Microplate reader using standard luminescence settings.
Relative IC50 values were determined using luminescence units by calculating percent inhibition with respect to the in-plate “MIN” (medium only) and “MAX” (0.1% DMSO) controls. The data were analyzed using a 4-parameter nonlinear logistic equation (four-parameter logistic concentration-response curve): Y=bottom+[(top−bottom)/1+(X/IC50) slope] • where Y=% inhibition, X=concentration of inhibitor, bottom=minimum value of y attained by curve-fit, top=maximum value of y attained by curve-fit and slope=steepness of curve at the IC50.

[2] = target: PI3Kα (p110[H1047R]/p85) kinase (Homo sapiens, UniProt P42336, H1047R); experiment: PI3Kα (p110[H1047R]/p85) kinase ADP-Glo Assay; assay type: biochemical; details: 25 uM ATP; for selectivity: WT/H1047R: ADP-Glo Assay IC50 ratio
PI3Kα (p110[H1047R]/p85) kinase, sequence (P42336 whole entry H1047R): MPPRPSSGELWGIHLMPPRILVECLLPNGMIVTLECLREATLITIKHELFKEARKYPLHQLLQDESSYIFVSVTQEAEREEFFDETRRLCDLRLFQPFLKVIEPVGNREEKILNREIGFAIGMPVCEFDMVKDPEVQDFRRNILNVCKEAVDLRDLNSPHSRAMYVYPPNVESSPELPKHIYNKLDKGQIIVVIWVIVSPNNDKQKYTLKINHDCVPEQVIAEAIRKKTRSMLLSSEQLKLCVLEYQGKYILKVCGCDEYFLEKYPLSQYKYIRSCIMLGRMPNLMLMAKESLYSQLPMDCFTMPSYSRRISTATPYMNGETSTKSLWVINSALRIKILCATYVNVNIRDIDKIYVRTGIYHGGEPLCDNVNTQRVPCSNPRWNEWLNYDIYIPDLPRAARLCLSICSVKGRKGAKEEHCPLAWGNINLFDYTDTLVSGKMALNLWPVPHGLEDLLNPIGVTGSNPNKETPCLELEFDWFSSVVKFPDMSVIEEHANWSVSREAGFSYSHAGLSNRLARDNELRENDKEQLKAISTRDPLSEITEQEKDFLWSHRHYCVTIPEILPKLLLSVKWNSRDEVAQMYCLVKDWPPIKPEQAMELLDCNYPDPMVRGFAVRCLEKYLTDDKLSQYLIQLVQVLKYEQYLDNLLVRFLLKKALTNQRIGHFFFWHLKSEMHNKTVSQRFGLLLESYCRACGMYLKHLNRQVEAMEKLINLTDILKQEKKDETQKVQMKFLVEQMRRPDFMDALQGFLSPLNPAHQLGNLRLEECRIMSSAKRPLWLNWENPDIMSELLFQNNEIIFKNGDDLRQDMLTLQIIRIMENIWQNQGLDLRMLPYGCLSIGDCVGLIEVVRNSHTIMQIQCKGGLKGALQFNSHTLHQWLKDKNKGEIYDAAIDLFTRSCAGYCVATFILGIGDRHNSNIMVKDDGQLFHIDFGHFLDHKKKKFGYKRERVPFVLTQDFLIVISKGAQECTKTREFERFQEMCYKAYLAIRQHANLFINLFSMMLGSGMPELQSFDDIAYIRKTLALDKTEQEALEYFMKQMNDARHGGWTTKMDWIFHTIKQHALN
PI3Kα (p110[H1047R]/p85) kinase, sequence (P27986 whole entry partner): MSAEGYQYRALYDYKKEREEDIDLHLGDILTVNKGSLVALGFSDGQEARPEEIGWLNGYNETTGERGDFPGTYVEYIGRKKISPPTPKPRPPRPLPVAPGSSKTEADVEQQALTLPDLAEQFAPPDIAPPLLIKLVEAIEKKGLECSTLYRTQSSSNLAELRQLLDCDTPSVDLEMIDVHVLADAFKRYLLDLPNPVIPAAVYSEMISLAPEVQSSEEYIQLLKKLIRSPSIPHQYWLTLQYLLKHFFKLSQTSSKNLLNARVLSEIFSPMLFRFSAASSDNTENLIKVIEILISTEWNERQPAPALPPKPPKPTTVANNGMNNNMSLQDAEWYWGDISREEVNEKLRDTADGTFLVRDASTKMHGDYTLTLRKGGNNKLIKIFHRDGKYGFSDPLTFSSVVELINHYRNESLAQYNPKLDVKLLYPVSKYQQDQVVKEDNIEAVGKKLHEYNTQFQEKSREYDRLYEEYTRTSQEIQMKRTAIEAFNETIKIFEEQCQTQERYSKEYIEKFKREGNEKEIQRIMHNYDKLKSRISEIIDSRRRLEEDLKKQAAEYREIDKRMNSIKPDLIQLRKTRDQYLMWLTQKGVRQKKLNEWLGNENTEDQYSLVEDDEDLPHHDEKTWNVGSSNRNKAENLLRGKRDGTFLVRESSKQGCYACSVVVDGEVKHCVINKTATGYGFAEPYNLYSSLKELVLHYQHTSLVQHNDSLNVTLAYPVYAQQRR
In short: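 PI3Kα H1047R/p85 pre-incubated 30 min at room temperature with PI(4,5)P2:PS substrate ([…]) and compound ([…]) in HEPES pH 7.5 buffer with MgCl2; ATP ([…]) then added for 120 min. ADP quantified by ADP-Glo luminescence; IC50 from four-parameter logistic fit.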

| Compound | IC50 [1] [nM] | IC50 [2] [nM] | selectivity: WT/H1047R [2] | Selectivity: SK-BR-3/T-47D (cell proliferation) [1] |
| --- | --- | --- | --- | --- |
| Cc1cc(C(C)Nc2ccccc2C(=O)O)c2cc(-c3cccc(F)c3F)n(C)c(=O)c2c1 (stereo not shown) [Example 12, 2-((1-(3-(2,3-difluorophenyl)-2,7-dimethyl-1-oxo-1,2-dihydroisoquinolin-5-yl)ethyl)amino)benzoic acid] | 237 | 175 | 38.2 | >42 |
| COc1cccc(-c2cc3c(C(C)Nc4ccccc4C(=O)O)cc(C)cc3c(=O)n2C)c1 (stereo not shown) [Example 13, 2-((1-(3-(3-methoxyphenyl)-2,7-dimethyl-1-oxo-1,2-dihydroisoquinolin-5-yl)ethyl)amino)benzoic acid] | 233 | 192 | 30.3 | >43 |
| COc1ccc(-c2cc3c(C(C)Nc4ccccc4C(=O)O)cc(C)cc3c(=O)n2C)cn1 (stereo not shown) [Example 15, 2-((1-(3-(6-methoxypyridin-3-yl)-2,7-dimethyl-1-oxo-1,2-dihydroisoquinolin-5-yl)ethyl)amino)benzoic acid] | 112 | 858 | 8.0 | >89 |
| Cc1cc(C(C)Nc2ccccc2C(=O)O)c2cc(-c3cnn(-c4ccc(C(N)=O)cn4)c3)n(C)c(=O)c2c1 (stereo not shown) [Example 16, 2-((1-(3-(1-(5-carbamoylpyridin-2-yl)-1H-pyrazol-4-yl)-2,7-dimethyl-1-oxo-1,2-dihydroisoquinolin-5-yl)ethyl)amino)benzoic acid] | 591 | 240 | 15.3 | >17 |
| Cc1cc(C(C)Nc2ccccc2C(=O)O)c2cc(-c3nc4ccccc4s3)n(C)c(=O)c2c1 (stereo not shown) [Example 17, 2-((1-(3-(benzo[d]thiazol-2-yl)-2,7-dimethyl-1-oxo-1,2-dihydroisoquinolin-5-yl)ethyl)amino)benzoic acid] | 746 | 255 | 30.5 | >13 |
| Cc1cc(C(C)Nc2ccccc2C(=O)O)c2cc(-c3ccc4nc(C)sc4c3)n(C)c(=O)c2c1 (stereo not shown) [Example 18, 2-((1-(2,7-dimethyl-3-(2-methylbenzo[d]thiazol-6-yl)-1-oxo-1,2-dihydroisoquinolin-5-yl)ethyl)amino)benzoic acid] | 222 | 272 | 16.1 | >45 |
| Cc1cc(C(C)Nc2ccccc2C(=O)O)c2cc(-c3ccc4nn(C)cc4c3)n(C)c(=O)c2c1 (stereo not shown) [Example 19, 2-((1-(2,7-dimethyl-3-(2-methyl-2H-indazol-5-yl)-1-oxo-1,2-dihydroisoquinolin-5-yl)ethyl)amino)benzoic acid] | 116 | 311 | 21.1 | >86 |
| Cc1cc(C(C)Nc2ccccc2C(=O)O)c2cc(-c3cccc4cn(C)nc34)n(C)c(=O)c2c1 (stereo not shown) [Example 22, 2-((1-(2,7-dimethyl-3-(2-methyl-2H-indazol-7-yl)-1-oxo-1,2-dihydroisoquinolin-5-yl)ethyl)amino)benzoic acid] | > 10000 | 1730 | 30.3 | – |
| Cc1cc(C(C)Nc2ccccc2C(=O)O)c2cc(-c3ccc(-c4cnn(C)c4)cc3)n(C)c(=O)c2c1 (stereo not shown) [Example 23, 2-((1-(2,7-dimethyl-3-(4-(1-methyl-1H-pyrazol-4-yl)phenyl)-1-oxo-1,2-dihydroisoquinolin-5-yl)ethyl)amino)benzoic acid] | 147 | 223 | 9.1 | >68 |
| Cc1cc(C(C)Nc2ccccc2C(=O)O)c2cc(NC(=O)c3ccccc3)n(C)c(=O)c2c1 (stereo not shown) [Example 24, 2-((1-(3-benzamido-2,7-dimethyl-1-oxo-1,2-dihydroisoquinolin-5-yl)ethyl)amino)benzoic acid] | 9340 | 1030 | 38.2 | >1.07 |
| Cc1cc(C(C)Nc2ccccc2C(=O)O)c2cc(-c3ccccc3C#N)n(C)c(=O)c2c1 (stereo not shown) [Example 32, 2-((1-(3-(2-cyanophenyl)-2,7-dimethyl-1-oxo-1,2-dihydroisoquinolin-5-yl)ethyl)amino)benzoic acid] | 2460 | 332 | 184.0 | >4.07 |
| Cc1cc(C(C)Nc2cccnc2C(=O)O)c2cc(-c3ccc(F)cc3)n(C)c(=O)c2c1 (stereo not shown) [Example 33, 3-((1-(3-(4-fluorophenyl)-2,7-dimethyl-1-oxo-1,2-dihydroisoquinolin-5-yl)ethyl)amino)picolinic acid] | 1590 | 1050 | 52.6 | >6.28 |
| Cc1cc(C(C)Nc2ccccc2C(=O)O)c2cc(-c3ccccn3)n(C)c(=O)c2c1 (stereo not shown) [Example 36, 2-((1-(2,7-dimethyl-1-oxo-3-(pyridin-2-yl)-1,2-dihydroisoquinolin-5-yl)ethyl)amino)benzoic acid] | 1420 | 603 | 84.2 | >7.04 |
| Cc1cc(C(C)Nc2ccccc2C(=O)O)c2cc(-c3cccnc3)n(C)c(=O)c2c1 (stereo not shown) [Example 37, 2-((1-(2,7-dimethyl-1-oxo-3-(pyridin-3-yl)-1,2-dihydroisoquinolin-5-yl)ethyl)amino)benzoic acid] | 172 | 309 | 40.6 | >58.3 |

Continued, in another order:

| IC50 [1] [nM] | IC50 [2] [nM] | selectivity: WT/H1047R [2] | Compound | Selectivity: SK-BR-3/T-47D (cell proliferation) [1] |
| --- | --- | --- | --- | --- |
| 232 | 156 | 23.9 | COc1ccc(-c2cc3c(C(C)Nc4ccccc4C(=O)O)cc(C)cc3c(=O)n2C)cc1 (stereo not shown) [Example 14, 2-((1-(3-(4-methoxyphenyl)-2,7-dimethyl-1-oxo-1,2-dihydroisoquinolin-5-yl)ethyl)amino)benzoic acid] | >43 |
| 934 | 93 | 108.4 | CC(Nc1ccccc1C(=O)O)c1cccc2c(=O)n(C)c(-c3ccccc3)cc12 (stereo not shown) [Example 20, 2-((1-(2-methyl-1-oxo-3-phenyl-1,2-dihydroisoquinolin-5-yl)ethyl)amino)benzoic acid] | >10.7 |
| 2540 | 121 | 11.1 | CC(Nc1ccccc1C(=O)O)c1cccc2c(=O)n(C)c(C#Cc3ccccc3)cc12 (stereo not shown) [Example 21, 2-((1-(2-methyl-1-oxo-3-(phenylethynyl)-1,2-dihydroisoquinolin-5-yl)ethyl)amino)benzoic acid] | >3.93 |
| > 10000 | 229 | 104.0 | CC(Nc1ccccc1C(=O)O)c1cccn2c(=O)cc(-c3ccccc3)cc12 (stereo not shown) [Example 25, 2-((1-(4-oxo-2-phenyl-4H-quinolizin-9-yl)ethyl)amino)benzoic acid] | – |
| 177 | 104 | 24.1 | Cc1cc([C@@H](C)Nc2ccccc2C(=O)O)c2cc(-c3ccccc3)n(C)c(=O)c2c1 [Example 30, (R)-2-((1-(2,7-dimethyl-1-oxo-3-phenyl-1,2-dihydroisoquinolin-5-yl)ethyl)amino)benzoic acid] | >57 |
| > 10000 | > 100000 | – | Cc1cc([C@H](C)Nc2ccccc2C(=O)O)c2cc(-c3ccccc3)n(C)c(=O)c2c1 [Example 31, (S)-2-((1-(2,7-dimethyl-1-oxo-3-phenyl-1,2-dihydroisoquinolin-5-yl)ethyl)amino)benzoic acid] | – |
| 175 | 107 | 39.0 | Cc1cc([C@@H](C)Nc2ccccc2C(=O)O)c2cc(-c3ccc(F)cc3)n(C)c(=O)c2c1 [Example 34, (R)-2-((1-(3-(4-fluorophenyl)-2,7-dimethyl-1-oxo-1,2-dihydroisoquinolin-5-yl)ethyl)amino)benzoic acid] | >57 |
| > 10000 | > 100000 | – | Cc1cc([C@H](C)Nc2ccccc2C(=O)O)c2cc(-c3ccc(F)cc3)n(C)c(=O)c2c1 [Example 35, (S)-2-((1-(3-(4-fluorophenyl)-2,7-dimethyl-1-oxo-1,2-dihydroisoquinolin-5-yl)ethyl)amino)benzoic acid] | – |
